These results are taken from US9096593B2, “Compounds and methods for kinase modulation, and indications therefor” (Plexxikon Inc., priority 2009, dated 2015).

SMILES strings stand for the structures. Read-outs that look alike come from different tables or passages of the source.

For one experiment, the target named is c-Kit kinase (Homo sapiens (Human), UniProt P10721). Briefly: c-Kit kinase biochemical activity assay (AlphaScreen, biotin-(E4Y)10 phosphorylation). The protocol:
In one assay the biochemical activity IC50 values are determined with respect to inhibition of c-Kit kinase activity, where inhibition of phosphorylation of a peptide substrate is measured as a function of compound concentration. Compounds to be tested are dissolved in DMSO to a concentration of 20 mM. These are diluted 30 μL into 120 μL of DMSO (4 mM) and 1 μL is added to an assay plate. These are then serially diluted […] (50 μL to 100 μL DMSO) for a total of 8 points. Plates are prepared such that each kinase reaction is 20 μL in 1× kinase buffer (25 mM HEPES, pH 7.5, 2 mM MgCl2, 2 mM MnCl2, 0.01% Tween-20, 1 mM DTT, 0.01% BSA), 5% DMSO and 100 μM ATP. Substrate is 30 nM biotin-(E4Y)10 (Millipore). C-kit kinase (obtained from Millipore (#14-559) or is prepared as described in U.S. Patent Application Publication Number 2009/0076046, the disclosure of which is hereby incorporated by reference as it relates to this assay) is at 0.75 ng per sample. After incubation of the kinase reaction for 1 hour at room temperature, 5 μL of donor beads (Streptavidin coated beads (Perkin Elmer Life Science) final concentration 10 μg/mL) in stop buffer (25 mM Hepes pH 7.5, 100 mM EDTA, 0.01% BSA) is added, the sample is mixed and incubated for 20 minutes at room temperature before adding 5 μL of acceptor beads (PY20 coated beads (Perkin Elmer Life Science) final concentration 10 μg/mL) in stop buffer. The samples are incubated for 60 minutes at room temperature and the signal per well is read on Envision reader. […] The signal vs. compound concentration is used to determine the IC50.
For orientation: In Alpha technology, singlet oxygen from a donor bead excites a nearby acceptor bead.

A further experiment concerns the target Fms kinase (Homo sapiens (Human), UniProt P07333). Briefly: Fms kinase biochemical activity assay (AlphaScreen, biotin-(E4Y)10 phosphorylation). The method, boiled down:
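Recombinant human Fms phosphorylating 30 nM biotin-(E4Y)10 with 100 μM ATP (1 ng/well enzyme) in Hepes pH 7.5 buffer with Mg2+/Mn2+, 5% DMSO, 20 min at 30 °C. Phosphotyrosine detected by AlphaScreen streptavidin donor/PY20 acceptor beads; IC50 from signal versus compound concentration.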

[1] abbreviates: read-out: Biochemical activity (IC50 μM) Fms.

Chain of c-Kit kinase (P10721 26-976): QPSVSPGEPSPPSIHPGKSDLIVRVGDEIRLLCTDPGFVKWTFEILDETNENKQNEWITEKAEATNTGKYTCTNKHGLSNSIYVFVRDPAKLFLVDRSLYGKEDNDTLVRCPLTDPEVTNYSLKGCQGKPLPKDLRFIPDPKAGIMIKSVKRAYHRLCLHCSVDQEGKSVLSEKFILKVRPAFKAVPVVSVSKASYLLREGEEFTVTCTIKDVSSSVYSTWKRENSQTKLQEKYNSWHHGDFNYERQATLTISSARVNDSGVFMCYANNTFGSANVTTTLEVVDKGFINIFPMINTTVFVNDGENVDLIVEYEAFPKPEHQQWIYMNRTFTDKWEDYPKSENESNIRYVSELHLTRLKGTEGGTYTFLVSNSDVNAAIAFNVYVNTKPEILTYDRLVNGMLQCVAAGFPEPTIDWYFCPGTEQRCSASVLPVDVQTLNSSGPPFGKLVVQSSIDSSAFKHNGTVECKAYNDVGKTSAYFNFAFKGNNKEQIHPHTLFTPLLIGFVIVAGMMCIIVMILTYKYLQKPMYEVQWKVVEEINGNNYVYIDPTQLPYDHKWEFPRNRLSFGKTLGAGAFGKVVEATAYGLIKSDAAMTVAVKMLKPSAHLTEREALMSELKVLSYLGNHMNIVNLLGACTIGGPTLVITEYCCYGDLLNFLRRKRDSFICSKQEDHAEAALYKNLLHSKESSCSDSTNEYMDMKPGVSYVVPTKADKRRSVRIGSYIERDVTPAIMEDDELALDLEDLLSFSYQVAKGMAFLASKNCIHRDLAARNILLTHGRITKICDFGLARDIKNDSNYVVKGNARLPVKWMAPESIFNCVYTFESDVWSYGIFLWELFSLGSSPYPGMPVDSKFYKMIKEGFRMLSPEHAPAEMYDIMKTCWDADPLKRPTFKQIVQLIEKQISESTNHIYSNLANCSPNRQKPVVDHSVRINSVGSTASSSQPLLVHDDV
Chain of Fms kinase (P07333 20-972): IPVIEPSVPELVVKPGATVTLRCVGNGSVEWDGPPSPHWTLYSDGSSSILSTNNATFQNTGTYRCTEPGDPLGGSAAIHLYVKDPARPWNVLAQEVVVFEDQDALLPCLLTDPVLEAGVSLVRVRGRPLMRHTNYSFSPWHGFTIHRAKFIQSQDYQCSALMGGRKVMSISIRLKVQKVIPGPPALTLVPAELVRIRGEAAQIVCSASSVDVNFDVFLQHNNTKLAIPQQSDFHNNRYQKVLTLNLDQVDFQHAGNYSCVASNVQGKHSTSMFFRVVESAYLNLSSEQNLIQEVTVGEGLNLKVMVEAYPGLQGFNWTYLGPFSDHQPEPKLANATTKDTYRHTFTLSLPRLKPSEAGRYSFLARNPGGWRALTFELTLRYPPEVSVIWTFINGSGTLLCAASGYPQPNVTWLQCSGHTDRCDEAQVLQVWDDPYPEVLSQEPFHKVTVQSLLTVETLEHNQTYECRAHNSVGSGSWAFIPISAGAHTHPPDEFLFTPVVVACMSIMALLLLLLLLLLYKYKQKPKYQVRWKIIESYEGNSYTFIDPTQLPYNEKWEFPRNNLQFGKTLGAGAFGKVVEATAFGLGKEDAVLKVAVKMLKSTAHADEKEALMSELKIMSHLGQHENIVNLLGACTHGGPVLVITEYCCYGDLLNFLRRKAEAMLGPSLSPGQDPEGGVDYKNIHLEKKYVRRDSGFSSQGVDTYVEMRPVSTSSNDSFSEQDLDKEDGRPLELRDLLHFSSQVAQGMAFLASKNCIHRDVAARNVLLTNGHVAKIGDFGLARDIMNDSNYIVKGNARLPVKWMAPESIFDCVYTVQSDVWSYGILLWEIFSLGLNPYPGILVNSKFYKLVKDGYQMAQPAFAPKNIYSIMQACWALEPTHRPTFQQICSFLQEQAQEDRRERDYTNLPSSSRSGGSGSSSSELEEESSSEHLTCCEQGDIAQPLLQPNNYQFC

Turning to `COc1ccc(CNc2ncc(Cc3c[nH]c4ncc(C)cc34)cn2)cn1` [Compound P-2057, (6-Methoxy-pyridin-3-ylmethyl)-[5-(5-methyl-1H-pyrrolo[2,3-b]pyridin-3-ylmethyl)-pyrimidin-2-yl]-amine], the IC50 (usually the concentration needed to halve the response being measured) was greater than 0.1 µM at c-Kit kinase; less than 0.1 µM at Fms kinase (100 μM ATP, read-out: Biochemical (IC50 μM) Fms); less than 0.1 µM on Fms kinase (setting [1]). Also, the “Biochemical activity selectivity (Kit IC50/Fms IC50)” value at Fms kinase is less than 20.
As to `COc1ncc(F)cc1CNc1ncc(Cc2c[nH]c3ncc(C)cc23)cn1` [Compound P-2061, (5-Fluoro-2-methoxy-pyridin-3-ylmethyl)-[5-(5-methyl-1H-pyrrolo[2,3-b]pyridin-3-ylmethyl)-pyrimidin-2-yl]-amine], the IC50 is greater than 0.1 µM against c-Kit kinase and less than 0.1 µM at Fms kinase (setting [1]). Further, the “Biochemical activity selectivity (Kit IC50/Fms IC50)” value on Fms kinase was greater than 20.
Regarding `Cc1cnc2[nH]cc(Cc3ccc(NCc4cnccc4C(F)(F)F)nc3F)c2c1` [Compound P-2062, [6-Fluoro-5-(5-methyl-1H-pyrrolo[2,3-b]pyridin-3-ylmethyl)-pyridin-2-yl]-(4-trifluoromethyl-pyridin-3-ylmethyl)-amine], the IC50 is greater than 0.1 µM against c-Kit kinase and less than 0.1 µM on Fms kinase (setting [1]). In addition, the “Biochemical activity selectivity (Kit IC50/Fms IC50)” value on Fms kinase was greater than 20.
With `FC(F)(F)c1ccncc1CNc1ccc(Cc2c[nH]c3ncc(Cl)cc23)cn1` [Compound P-2063, [5-(5-Chloro-1H-pyrrolo[2,3-b]pyridin-3-ylmethyl)-pyridin-2-yl]-(4-trifluoromethyl-pyridin-3-ylmethyl)-amine], the concentration for half-maximal inhibition (IC50) at c-Kit kinase and on Fms kinase (setting [1]) was less than 0.1 µM throughout. For the same compound, the “Biochemical activity selectivity (Kit IC50/Fms IC50)” value on Fms kinase is less than 20.
For the compound `COc1ncc(F)cc1CNc1ncc(Cc2c[nH]c3ncc(Cl)cc23)cn1` [Compound P-2064, [5-(5-Chloro-1H-pyrrolo[2,3-b]pyridin-3-ylmethyl)-pyrimidin-2-yl]-(5-fluoro-2-methoxy-pyridin-3-ylmethyl)-amine], the figures for the IC50 on c-Kit kinase and on Fms kinase (setting [1]) were greater than 0.1 µM and less than 0.1 µM, respectively. Also, the “Biochemical activity selectivity (Kit IC50/Fms IC50)” value on Fms kinase is on record as greater than 20.
`Cc1cnc2[nH]cc(Cc3ccc(NCc4cnccc4C(F)(F)F)nc3)c2c1` [Compound P-2070, [5-(5-Methyl-1H-pyrrolo[2,3-b]pyridin-3-ylmethyl)-pyridin-2-yl]-(4-trifluoromethyl-pyridin-3-ylmethyl)-amine]: the concentration for half-maximal inhibition (IC50) against c-Kit kinase and on Fms kinase (setting [1]) was less than 0.1 µM in each case. In addition, the “Biochemical activity selectivity (Kit IC50/Fms IC50)” value on Fms kinase is listed as less than 20.
Regarding `COc1cc(CNc2ccc(Cc3c[nH]c4ncc(C)cc34)c(F)n2)c(F)cn1` [Compound P-2071, (5-Fluoro-2-methoxy-pyridin-4-ylmethyl)-[6-fluoro-5-(5-methyl-1H-pyrrolo[2,3-b]pyridin-3-ylmethyl)-pyridin-2-yl]-amine], the IC50 against c-Kit kinase is greater than 0.1 µM; on Fms kinase (setting [1]) it was less than 0.1 µM. Moreover, the “Biochemical activity selectivity (Kit IC50/Fms IC50)” value at Fms kinase is recorded as greater than 20.
On the same counts, the results for `COc1ncc(CNc2ncc(Cc3c[nH]c4ncc(C)cc34)cn2)cc1F` [Compound P-2073, (5-Fluoro-6-methoxy-pyridin-3-ylmethyl)-[5-(5-methyl-1H-pyrrolo[2,3-b]pyridin-3-ylmethyl)-pyrimidin-2-yl]-amine] are greater than 0.1 µM, less than 0.1 µM and greater than 20.
For `Cc1cc(CNc2ccc(Cc3c[nH]c4ncc(Cl)cc34)c(F)n2)ccn1` [Compound P-2075, [5-(5-Chloro-1H-pyrrolo[2,3-b]pyridin-3-ylmethyl)-6-fluoro-pyridin-2-yl]-(2-methyl-pyridin-4-ylmethyl)-amine] the same measures were greater than 0.1 µM, less than 0.1 µM and greater than 20.
Regarding `Cc1cnc2[nH]cc(Cc3cnc(NCc4ccc(Cl)nc4)nc3)c2c1` [Compound P-2078, (6-Chloro-pyridin-3-ylmethyl)-[5-(5-methyl-1H-pyrrolo[2,3-b]pyridin-3-ylmethyl)-pyrimidin-2-yl]-amine], the concentration for half-maximal inhibition (IC50) is greater than 0.1 µM against c-Kit kinase and less than 0.1 µM at Fms kinase (setting [1]). The “Biochemical activity selectivity (Kit IC50/Fms IC50)” value at Fms kinase is reported as greater than 20.
As to `Cc1cnc2[nH]cc(Cc3cnc(NCc4cccc(C)n4)nc3)c2c1` [Compound P-2079, (6-Methyl-pyridin-2-ylmethyl)-[5-(5-methyl-1H-pyrrolo[2,3-b]pyridin-3-ylmethyl)-pyrimidin-2-yl]-amine], the IC50 against c-Kit kinase and at Fms kinase (setting [1]) was less than 0.1 µM throughout. The “Biochemical activity selectivity (Kit IC50/Fms IC50)” value at Fms kinase was less than 20.
For the compound `Cc1cnc2[nH]cc(Cc3cnc(NCc4cccc(N5CCOCC5)n4)nc3)c2c1` [Compound P-2081, [5-(5-Methyl-1H-pyrrolo[2,3-b]pyridin-3-ylmethyl)-pyrimidin-2-yl]-(6-morpholin-4-yl-pyridin-2-ylmethyl)-amine], the IC50 against c-Kit kinase and at Fms kinase (setting [1]) was less than 0.1 µM each time. Also, the “Biochemical activity selectivity (Kit IC50/Fms IC50)” value on Fms kinase was less than 20.
Take `Cc1cnc2[nH]cc(Cc3cnc(NCc4cccc(N5CCCC5)n4)nc3)c2c1` [Compound P-2082, [5-(5-Methyl-1H-pyrrolo[2,3-b]pyridin-3-ylmethyl)-pyrimidin-2-yl]-(6-pyrrolidin-1-yl-pyridin-2-ylmethyl)-amine]: the IC50 at c-Kit kinase and on Fms kinase (setting [1]) was less than 0.1 µM throughout. The “Biochemical activity selectivity (Kit IC50/Fms IC50)” value on Fms kinase is less than 20.
Take `Cc1cnc2[nH]cc(Cc3ccc(NCc4ccc(Cl)nc4)nc3F)c2c1` [Compound P-2088, (6-Chloro-pyridin-3-ylmethyl)-[6-fluoro-5-(5-methyl-1H-pyrrolo[2,3-b]pyridin-3-ylmethyl)-pyridin-2-yl]-amine]: the concentration for half-maximal inhibition (IC50) against c-Kit kinase is greater than 0.1 µM; at Fms kinase (setting [1]) it was less than 0.1 µM. Also, the “Biochemical activity selectivity (Kit IC50/Fms IC50)” value at Fms kinase was greater than 20.
In the case of `COc1ccc(CNc2ccc(Cc3c[nH]c4ncc(C)cc34)c(F)n2)c(OC)n1` [Compound P-2097, (2,6-Dimethoxy-pyridin-3-ylmethyl)-[6-fluoro-5-(5-methyl-1H-pyrrolo[2,3-b]pyridin-3-ylmethyl)-pyridin-2-yl]-amine], the results for the IC50 on c-Kit kinase and at Fms kinase (setting [1]) were greater than 0.1 µM and less than 0.1 µM, respectively. Further, the “Biochemical activity selectivity (Kit IC50/Fms IC50)” value at Fms kinase is greater than 20.
As for `Cc1cnc2[nH]cc(Cc3ccc(NCc4cccnc4F)nc3F)c2c1` [Compound P-2103, [6-Fluoro-5-(5-methyl-1H-pyrrolo[2,3-b]pyridin-3-ylmethyl)-pyridin-2-yl]-(2-fluoro-pyridin-3-ylmethyl)-amine], the results for the IC50 against c-Kit kinase and on Fms kinase (setting [1]) were greater than 0.1 µM and less than 0.1 µM, respectively. The “Biochemical activity selectivity (Kit IC50/Fms IC50)” value on Fms kinase was greater than 20.
For `Cc1cnc2[nH]cc(Cc3ccc(NCc4ccnc(F)c4)nc3F)c2c1` [Compound P-2118, [6-Fluoro-5-(5-methyl-1H-pyrrolo[2,3-b]pyridin-3-ylmethyl)-pyridin-2-yl]-(2-fluoro-pyridin-4-ylmethyl)-amine], the IC50 was greater than 0.1 µM at c-Kit kinase and less than 0.1 µM at Fms kinase (setting [1]). Moreover, the “Biochemical activity selectivity (Kit IC50/Fms IC50)” value at Fms kinase was greater than 20.
On the same counts, the results for `Cc1ccc(CNc2ccc(Cc3c[nH]c4ncc(C)cc34)c(F)n2)nc1` [Compound P-2131, [6-Fluoro-5-(5-methyl-1H-pyrrolo[2,3-b]pyridin-3-ylmethyl)-pyridin-2-yl]-(5-methyl-pyridin-2-ylmethyl)-amine] are greater than 0.1 µM, less than 0.1 µM and greater than 20.
For the compound `COc1ncccc1CNc1ncc(Cc2c[nH]c3ncc(C)cc23)cn1` [Compound P-2139, (2-Methoxy-pyridin-3-ylmethyl)-[5-(5-methyl-1H-pyrrolo[2,3-b]pyridin-3-ylmethyl)-pyrimidin-2-yl]-amine], the IC50 was greater than 0.1 µM against c-Kit kinase and less than 0.1 µM on Fms kinase (setting [1]). On Fms kinase, the “Biochemical activity selectivity (Kit IC50/Fms IC50)” value was greater than 20.
For `Cc1cnc2[nH]cc(Cc3cnc(NCc4ccc(C(F)(F)F)nc4)c(F)c3)c2c1` [Compound P-2146, [3-Fluoro-5-(5-methyl-1H-pyrrolo[2,3-b]pyridin-3-ylmethyl)-pyridin-2-yl]-(6-trifluoromethyl-pyridin-3-ylmethyl)-amine] the same measures were less than 0.1 µM, less than 0.1 µM and less than 20.
With `COc1cnc2[nH]cc(Cc3cnc(NCc4ccc(C(F)(F)F)nc4)c(F)c3)c2c1` [Compound P-2147, [3-Fluoro-5-(5-methoxy-1H-pyrrolo[2,3-b]pyridin-3-ylmethyl)-pyridin-2-yl]-(6-trifluoromethyl-pyridin-3-ylmethyl)-amine], the IC50 against c-Kit kinase and at Fms kinase (setting [1]) was less than 0.1 µM throughout. Further, the “Biochemical activity selectivity (Kit IC50/Fms IC50)” value on Fms kinase was less than 20.
